Source: US20130273092A1 (priority 2010, published 2013)

Experiments:
Format in all cases: cell-based, C57BL/6 mice
CD8 cells = test system: CD8 cells
Vb6-CD8 clone = test system: Vb6-CD8 clone
Vb6+ CD8 clone = test system: Vb6+ CD8 clone

Row | Substance | TNF-α and IFN-γ expression (CD8 cells) | response pattern (IFN-γ and proliferation) (Vb6-CD8 clone) | IFN-γ by ELISA (Vb6+ CD8 clone) | proliferation (3H-thymidine incorporation, stimulation index) (Vb6+ CD8 clone)
1 | H-SVIGFIQRM-OH [SEQ ID NO: 3] | stimulated TNF-α and IFN-γ expression from nearly as many CD8 cells as did the polyclonal stimulus anti-CD3 | – | – | –
2 | H-VAHSVIGFIQRMFSE-OH [YopE peptide number 14] | – | identical response pattern | specifically produced IFN-γ | proliferated
